Data taken from patent US10842838B2, “Method for the use of botanical extracts in the treatment of viral infections” (priority 2012, dated 2020).

Test system: VACV
Format: cell-based, vaccinia virus
Conditions: 100 pfu VACV, 48 HPI

With C=C(C)[C@@H]1CC[C@]2(C)CC[C@]3(C)[C@H](CC[C@@H]4[C@@]5(C)CC[C@H](O)C(C)(C)[C@@H]5CC[C@]43C)[C@@H]12 [lupeol] as the compound, how does the “antiviral activity, VACV plaques” value read?
The value was “did not show suitable antiviral activity”.
